In one assay the target is human DGKα (Homo sapiens (Human), UniProt P23743). Kind of assay: biochemical. The following applies: detergent/lipid micelle substrate; read-out: DGKα IC50. A digest of the protocol: (§1)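 Enzymes were baculovirus/Sf9 full-length human DGKα or DGKζ with His tag. The substrate was PS/DAG in octyl glucoside micelles, in MOPS pH 7.5 buffer with NaCl, MgCl2, CaCl2 and DTT.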
In assay [1] the test system is Jurkat AP1-luciferase Reporter. Kind of assay: DGK AP1-Reporter Assay. Conditions: Homo sapiens, Jurkat. The class given is cell-based. A digest of the protocol: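 Jurkat cells carrying a lentiviral AP1-luciferase reporter received 30 nl compound per well for 20 min at 37 °C and 5% CO2. They were then stimulated for 6 h with anti-CD3 solution at 0.4 μg/mL; reference wells received 4 μg/mL and unstimulated wells medium only. Readout was Steady-Glo luciferase luminescence (RLU).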

A further assay concerns Human venous whole blood. Kind of assay: Human Whole Blood IFN-γ Assay. It counts as cell-based. Conditions: Homo sapiens. On the procedure:
Human venous whole blood (22.5 μL per well), obtained from healthy donors, was pre-treated with compounds for one hour at 37° C. in a humidified 95% air/5% CO2 incubator. The blood was stimulated with 2.5 μL anti-human CD3 and anti-CD28 mAb at a final concentration of 1 μg/mL each for 24 hours at 37° C. IFN-γ in the supernatants was measured using AlphaLISA kit (Cat #AL217).

For a further assay, the target named is human DGKζ (Homo sapiens (Human), UniProt Q13574). Briefly: DGKζ assay (detergent/lipid micelle substrate). The class given is biochemical. Conditions: detergent/lipid micelle substrate; read-out: DGKζ IC50. The method in brief: as §1
Chain of human DGKζ (Q13574 other isoform, or with tags, fused parts or gaps): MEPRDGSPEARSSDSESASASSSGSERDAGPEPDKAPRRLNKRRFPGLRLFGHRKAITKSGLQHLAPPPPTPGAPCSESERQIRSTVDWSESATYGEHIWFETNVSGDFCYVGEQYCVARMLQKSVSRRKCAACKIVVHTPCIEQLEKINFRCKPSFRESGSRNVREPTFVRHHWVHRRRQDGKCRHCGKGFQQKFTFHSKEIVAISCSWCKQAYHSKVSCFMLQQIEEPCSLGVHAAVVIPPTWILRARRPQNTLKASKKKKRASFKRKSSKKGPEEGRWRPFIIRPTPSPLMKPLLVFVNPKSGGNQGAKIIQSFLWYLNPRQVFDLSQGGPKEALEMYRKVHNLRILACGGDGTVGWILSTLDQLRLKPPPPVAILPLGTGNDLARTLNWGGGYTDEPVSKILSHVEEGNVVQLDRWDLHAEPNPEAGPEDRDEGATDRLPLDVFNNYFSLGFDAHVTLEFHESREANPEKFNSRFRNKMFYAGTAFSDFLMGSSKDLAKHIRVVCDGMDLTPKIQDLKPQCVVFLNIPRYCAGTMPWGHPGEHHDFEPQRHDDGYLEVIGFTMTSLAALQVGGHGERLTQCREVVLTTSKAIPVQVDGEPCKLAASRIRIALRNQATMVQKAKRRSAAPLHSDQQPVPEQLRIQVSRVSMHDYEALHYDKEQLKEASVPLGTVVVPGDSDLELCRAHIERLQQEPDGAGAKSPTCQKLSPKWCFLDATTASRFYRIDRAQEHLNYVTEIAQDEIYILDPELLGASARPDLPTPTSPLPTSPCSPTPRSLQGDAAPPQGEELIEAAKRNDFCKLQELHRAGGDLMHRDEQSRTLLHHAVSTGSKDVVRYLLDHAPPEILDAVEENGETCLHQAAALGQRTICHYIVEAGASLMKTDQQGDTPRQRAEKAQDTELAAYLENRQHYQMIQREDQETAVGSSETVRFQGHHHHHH
The test system of assay [2] is OT-1 antigen-specific CD8+ T cells with MC38 tumor cells. Briefly: Murine Cytotoxic T Lymphocyte Assay (IFN-γ). The class given is cell-based, mouse. The following applies: Mus musculus, MC-38, read-out: msCTL INF-γ IC50, murine CTL IFN-γ (table title reads INF-γ Whole Blood Normalized Agonist EC50). The text has this:
An antigen-specific cytolytic T-cell (CTL) assay was developed to evaluate functionally the ability of DGKα and DGKζ inhibitors to enhance effector T cell mediated tumor cell killing activity. CD8+ T-cells isolated from the OT-1 transgenic mouse recognize antigen presenting cells, MC38, that present the ovalbumin derived peptide […]. Recognition of the cognate antigen initiates the cytolytic activity of the OT-1 antigen-specific CD8+ T cells.
Functional CTL cells were generated as follows: OT-1 splenocytes from 8-12 week old mice were isolated and expanded in the presence of the […] peptide at 1 μg/mL and mIL2 at 10 U/mL. After three days, fresh media with mIL2 U/mL was added. On day 5 of the expansion, the CD8+ T cells were isolated and ready for use. Activated CTL cells may be stored frozen for 6 months. […] The cells were washed (3×) with fresh media to remove excess peptide. Finally, CTL cells that were pretreated with DGK inhibitors for 1 hour in a 96-well U bottom plate were combined with the antigen loaded MC38 tumor cells at a 1:10 ratio. The cells were then spun at 700 rpm for 5 min and placed in an incubator overnight at 37° C. After 24 hours, the supernatant was collected for analysis of IFN-γ cytokine levels by AlphaLisa purchased from Perkin Elmer.

A further assay deals with naïve human CD8 T cells. Briefly: CellTiter-Glo CD8 T Cell Proliferation Assay. The class given is cell-based. The following applies: Homo sapiens, T-cell. On the procedure:
Frozen naïve human CD8 T cells were thawed in RPMI+10% FBS, incubated for 2 h in 37° C., and counted. The 384-well tissue culture plate was coated overnight at 4° C. with 20 μl anti-human CD3 at 0.1 μg/mL in plain RPMI, which was removed off the plate before 20 k/40 μl CD8 T cells with 0.5 μg/mL soluble anti-human CD28 were added to each well. The compounds were echoed to the cell plate immediately after the cells were plated. After 72 h incubation at 37° C. incubator, 10 μl CellTiter-glo reagent (Promega catalog number G7570) was added to each well. The plate was vigorously shaken for 5 mins, incubated at room temperature for another 15 mins and read on Envision for CD8 T cell proliferation. In analysis, 0.1 μg/mL anti-CD3 and 0.5 μg/mL anti-CD28 stimulated CD8 T cell signal was background.

Assay [3] deals with pre-activated CD4 T cells and Raji cells. Briefly: Raji CD4 T Cell IL2 Assay. It counts as cell-based. Conditions: Homo sapiens, Raji.
The mark [4] stands for this setting: read-out: API-Luciferase Reporter IC50, Table 3.
[5] abbreviates: read-out: DGKAP1 Lucif Reporter IC50, Table 4.
The mark [6] stands for this setting: CellTiter-Glo CD8 T cell proliferation, normalized, read-out: CD8 GLO normalized EC50.

Where two headings read alike, the source gives them in different places.

Chain of human DGKα (P23743 other isoform, or with tags, fused parts or gaps): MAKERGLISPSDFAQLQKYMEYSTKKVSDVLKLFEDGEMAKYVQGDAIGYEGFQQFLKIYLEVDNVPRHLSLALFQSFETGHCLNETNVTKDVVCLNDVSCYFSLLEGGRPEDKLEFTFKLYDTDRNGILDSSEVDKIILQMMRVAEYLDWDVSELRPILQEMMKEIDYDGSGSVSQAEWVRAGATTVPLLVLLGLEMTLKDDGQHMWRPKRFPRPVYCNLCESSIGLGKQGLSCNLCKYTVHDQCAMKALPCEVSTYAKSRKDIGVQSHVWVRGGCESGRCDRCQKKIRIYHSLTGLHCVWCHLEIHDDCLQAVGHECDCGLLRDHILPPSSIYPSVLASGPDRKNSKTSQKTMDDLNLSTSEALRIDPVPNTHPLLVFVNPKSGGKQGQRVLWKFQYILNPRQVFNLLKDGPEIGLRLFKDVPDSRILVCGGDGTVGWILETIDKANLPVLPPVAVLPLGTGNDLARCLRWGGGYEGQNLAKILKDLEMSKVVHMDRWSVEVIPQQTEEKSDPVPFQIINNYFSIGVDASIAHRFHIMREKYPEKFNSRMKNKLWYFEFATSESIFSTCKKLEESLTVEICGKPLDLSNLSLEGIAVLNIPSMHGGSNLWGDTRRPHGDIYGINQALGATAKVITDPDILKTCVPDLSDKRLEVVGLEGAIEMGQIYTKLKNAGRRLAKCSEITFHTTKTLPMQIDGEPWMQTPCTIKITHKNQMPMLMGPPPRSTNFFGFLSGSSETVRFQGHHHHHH

Take `COCCn1c(=O)c([N+](=O)[O-])c(N2CCN(C(c3ccc(F)cc3)c3ccccc3O)CC2)c2nc(C#N)ccc21` (stereo not drawn) [Example 145, 8-(4-((4-fluorophenyl)(2-hydroxyphenyl)methyl)piperazin-1-yl)-5-(2-methoxyethyl)-7-nitro-6-oxo-5,6-dihydro-1,5-naphthyridine-2-carbonitrile]: the IC50 on human DGKα came out at 30000 nM; in assay [1] (setting [4]), 570 nM; on human DGKζ, 2300 nM; in assay [2], 460 nM. Moreover, the EC50 amounted to 1870 nM in the assay with Human venous whole blood (human whole blood, anti-CD3 plus anti-CD28 as baseline, 3 μM Example 40 co-stimulation as 100% activation, read-out: INF-γ Whole Blood Normalized Agonist EC50) and 1330 nM in the assay with Human venous whole blood (read-out: INF-γ Whole Blood Agonist EC50).

With `COc1ccccc1C(c1ccc(F)cc1)N1CCN(c2c(C#N)c(=O)n(CC3CC3)c3ccc(Br)nc23)CC1` (racemic) [Example 158, 6-bromo-1-(cyclopropylmethyl)-4-(4-((4-fluorophenyl)(2-methoxyphenyl)methyl)piperazin-1-yl)-2-oxo-1,2-dihydro-1,5-naphthyridine-3-carbonitrile], the IC50 on human DGKα is greater than 240000 nM; in assay [1] (setting [4]), 4590 nM; in assay [1] (setting [5]), 10000 nM; at human DGKζ, greater than 240000 nM. The EC50 with naïve human CD8 T cells (setting [6]) came to 920 nM.

As for `CCC(c1ccc(F)cc1)N1CCN(c2c([N+](=O)[O-])c(=O)n(C)c3ccc(C#N)nc23)CC1` (racemic) [Example 32, 8-{4-[1-(4-fluorophenyl)propyl]piperazin-1-yl}-5-methyl-7-nitro-6-oxo-5,6-dihydro-1,5-naphthyridine-2-carbonitrile], the IC50 is 190 nM on human DGKα, 360 nM in assay [1] (setting [4]) and 9400 nM at human DGKζ. For the same compound, the EC50 with naïve human CD8 T cells (read-out: CD8 GLO normalized EC50, CellTiter-Glo CD8 T cell proliferation, normalized) was 180 nM.

Consider `COc1ccc2c(c1)C(N1CCN(c3c(C#N)c(=O)n(CC#N)c4ccc(Br)nc34)CC1)CC2` (stereo not drawn) [Example 156, 6-bromo-1-(cyanomethyl)-4-(4-(6-methoxy-2,3-dihydro-1H-inden-1-yl)piperazin-1-yl)-2-oxo-1,2-dihydro-1,5-naphthyridine-3-carbonitrile], for which the IC50 on human DGKα is 170000 nM; in assay [1] (setting [4]) it was 10000 nM; in assay [1] (setting [5]) it was 10000 nM; at human DGKζ, 140000 nM; in assay [3] it was greater than 100000 nM. In addition, in the assay on naïve human CD8 T cells (setting [6]), the EC50 was determined as 140 nM.

The values above are taken from patent US11866430B2, “Naphthyridinone compounds useful as T cell activators” (priority 2018, dated 2024).
